Results from patent US20130303490A1, “Inhibitors of HIV Infections and uses thereof” (Centre National De La Recherche Scientifique-CNRS, priority 2010, published 2013).
Entries after “also recorded” stand apart in the source; their conditions may differ. Where two headings read alike, the source gives them in different places.

Columns and labels:
[1] = tested on: Ad8-luc virus in HOS CCR5 lacZ line; test: Infection of HOS CCR5 lacZ cells (not expressing S1PR1) with Ad8-luc virus (luciferase activity); assay type: cell-based, HIV-1
[2] = tested on: HIV-1 strain JR-CSF (R5 strain); test: Humanized SCID mice (hu-PBL-SCID) infected with HIV-1, viral load by qPCR; assay type: in vivo, mouse (SCID, grafted with human PBMCs); conditions: FTY720 0.3 mg per kg per day by gavage from D-1, viral load D6, 9, 12; p=0.023 (FIG. 6)
Method: SCID mice have the cb17/Icr-Prkdc^scid/Crl genotype. These immunodepressed mice are housed in an A3/L3 animal house in cages with a filter lid, in a ventilated cage rack. After one week of acclimatization, the animals are reconstituted by intraperitoneal injection of 30×10^6 PBMCs obtained by density centrifugation of the leukocytes of an uncertified cytapheresis annulus from a healthy volunteer donor. The reconstitution is evaluated on the 13th day by assaying the human immunoglobulins (Igs) present in the serum of the mice by means of an Elisa assay using the anti-human whole Ig-PO antibody (MP Biomedical, cat n° 55230). The mice whose total Ig concentration is greater than 100 μg/ml are kept for the experiment, and are infected 14 days after the reconstitution with the HIV-1 strain JR-CSF (R5 strain) at 1000 TCID50 in 100 μl. Daily gavage with 100 μl of FTY720 (Cayman, sold by Interchim ref. BM8045) dissolved at 60 μg/ml in distilled water is begun one day before the infection and continued for 12 days. The untreated mice are given the same volume of distilled water by gavage. […] The viremies are evaluated by quantification of the viral ARN in the plasma of the mice by qPCR with the AmpliPrep/COBAS TaqMan HIV-1 test (Roche Diagnostics, ref. 05212294190). […]

[3] = tested on: Ad8-luc virus in peripheral blood mononuclear cells (PBMCs); test: Infection of PBMCs with Ad8-luc virus (luciferase activity); assay type: cell-based, HIV-1
Method: The HOS-CD4 line (AIDS Reagent Program, Rockville, Md.) and the HEK-293T line (simian virus 40 T antigen-transformed human embryonic kidney 293T, Genethon) are cultured in DMEM medium supplemented with 10% of FCS (fetal calf serum), 10 mM of glutamax-1, 100 U/ml of penicillin and 100 μg/ml of streptomycin. The HEK-293T CD4+ CCR5+ line (gift from Martine Biard-Piechaczyk, Institute of Biology, Montpellier, France) was obtained by transfection of CD4 and CCR5 genes using the HEK-293T line. The human PBMCs in culture are isolated from blood of healthy donors by density centrifugation on lymphocyte separation medium (Eurobio) and cultured in RPMI medium supplemented like the DMEM at 37° C., 5% CO2.

[4] = tested on: Ad8-luc virion (nonreplicative R5-pseudotyped HIV-1) in HEK-293T CD4+ CCR5+ cells; test: Infection of S1PR1-transfected HEK-293T CD4+ CCR5+ cells with Ad8-luc virion (luciferase activity); assay type: cell-based
Method: In order to test the influence of the expression of S1PR1 on infection with HIV-1, 50 000 HEK-293T CD4+ CCR5+ cells were transiently transfected by lipofection, by incubating them for 24 hours with a mixture of 50 ng of CMV-S1PR1 plasmid, 20 ng of the pRL-TK-Renilla Luciferase plasmid (Promega) and 0.5 μl of lipofectamine (Lipofectamine™ 2000, Invitrogen) in 150 μl of DMEM medium, 10% FCS, in a 96-well plate, incubated beforehand with a solution of D-polylysine for 30 min. […] 24 h after the transfection, the wells are washed with DMEM (BioWhittaker), and then the cells are infected with 40 ng of the Ad8-luc virion in 180 μl of culture medium. […] 24 h after the infection, the cells are washed once with culture medium, and put back in culture with 200 μl of DMEM, 10% FCS. 40 h to 48 h after the infection, the cells are washed once with PBS, and lysed with 50 μl of buffer, and then the Firefly and Renilla luciferase activities are measured sequentially in a luminometer using the Dual-Luciferase® Reporter Assay system (Promega, cat: E1910). The Renilla luciferase activity is used as a measure of the level of cell metabolism.

[5] = HOS CCR5 lacZ cells not expressing S1PR1, 33 μM preincubation for one hour (FIG. 3), p<0.01

CCCCCCCCc1ccc(CCC(N)(CO)CO)cc1.Cl [FTY720, 2-amino-2-[2-(4-octylphenyl)ethyl]propane-1,3-diol]
decrease of the HIV infection [1, 5]: approximately 50%
viremia / infection of the treated animals versus untreated group [2]: clear decrease in viremia; also recorded: significant decrease

FC(F)(F)c1cccc(-c2noc(-c3cc(-c4ccccc4)c(C(F)(F)F)s3)n2)c1 [SEW2871]
decrease of the HIV infection [1, 5]: No significant difference; also recorded: does not significantly modify the infection

CCCCCCCCc1ccc(CC[C@](N)(CO)COP(=O)(O)O)cc1 [FTY720-P]
decrease of the HIV infection [1]: approximately 50%
inhibition of the infection ([3]; PBMCs from a healthy donor, 1 μM preincubation, Ad8-luc for 72 h (FIG. 4)): approximately 60%
reduction of infection compared with the empty plasmid control ([4]; S1PR1-expressing HEK-293T CD4+ CCR5+ cells, FTY720-P 80 ng/ml for 30 min before addition of the virus, unstimulated S1PR1 alone gives 60%): 90%

CCCCCCCCCCCCC/C=C/[C@@H](O)[C@@H](N)COP(=O)(O)O [Sphingosine-1-phosphate, sphingosine-1-phosphate]
decrease of the HIV infection [1, 5]: approximately 50%
inhibition at 1 µM ([3]; Human immunodeficiency virus 1, PBMC, read-out: inhibition of the infection): ~60%

B1: MIP1-β: a CCR5 ligand known to inhibit HIV infection (R&D systems) (protein, UniProt P13236 24-92, looked up)
C-C motif chemokine 4: APMGSDPPTACCFSYTARKLPRNFVVDYYETSSLCSQPAVVFQTKRSKQVCADPSESWVQEYVYDLELN
decrease in infection compared with that of FTY720-P ([4]; same conditions, anti-CCR5 antibody 10 μg/ml, MIP-1β 100 ng/ml, 30 min before infection): of the same level
